US12280087B2, “Composition comprising self-assembling peptides for use in treatment of gingivitis, periodontitis and/or peri-implantitis” (Credentis AG, priority 2016, dated 2025)
Where no end group is shown, it is not given here. [ ]: non-standard residue; d: D form. Orn = NCCC[C@H](N)C(=O)O

Assays:
[1] = tested on: P. gingivalis; assay: Release of antibiotics from self-assembling peptide gels, bacterial growth by turbidity OD600; format: cell-based; conditions: antibiotic 150 mg/ml in SAP gels 15 mg/ml (P11-4, P11-13/14, P11-28/29); OD600 normalized to gel without antibiotic; over 120 hours
Description: (§1) FIG. 1: Bacterial density after release of antibiotics (150 mg/ml) from self-assembling peptide gels (15 mg/ml), and the impact thereof to the growth of P. gingivalis (A-C) and S. sanguinis (D-F). Circles: metronidazol, stars: tetracycline, triangle: ciprofloxacin, squares: doxycycline hyclate; control: gel without API
(§2) Hydrogels comprising self-assembling peptides with (150 mg/ml) and without antibiotics were formed by dissolving the respective peptides at a concentration of 15 mg/ml or equimolar for combination SAP in a concentration of −10 mg*ml-1 as follows:
(§3) For the gels formed by peptides P11-13 and P11-14: or for P11-28 and P11-29, equimolar solutions of peptides were prepared in a well plate, and pH corrected to physiological conditions, resulting in a gel.
(§4) Furthermore 100 uL/well of a defined anaerobic P. gingivalis or aerobic S. anguines bacterial culture (10^7 CFU/ml e.g. 990 μl BHI medium, 10 μl 10^8 CFU/ml bacteria suspension) were added onto the gels. Impact on growth was assessed by measuring turbidity at OD600 nm. Data obtained with antibiotics were normalized to control (gel+bacteria+medium without antibiotics) to analyse the relative bacterial density. 50 μl/well of medium were added every second day.

[2] = tested on: S. sanguinis; assay: as above; format: cell-based; conditions: antibiotic 150 mg/ml in SAP gels 15 mg/ml (P11-4, P11-13/14, P11-28/29); OD600 normalized to gel without antibiotic; over 120 hours
Description: as §1, §2, §3, §4

[3] = Mechanical properties (G′) of SAP gels in different ions and buffer systems; format: physicochemical
Description: FIG. 5: Mechanical properties are dependent on the presence of different ions and buffer systems. […] Since NO3− are monovalent ions, and ionic strength of the solution was below 130 mM, P11-8 self-assembling was slowed down. On the other hand self-assembling kinetic of P11-8 with DMEM and NaCl solution is very similar.

[4] = tested on: periodontal ligament fibroblasts (PDLF); assay: In vitro periodontal pocket model, migration of PDLF out of donor compartment; format: cell-based, human; conditions: P11-4 20 mg/ml, all others 15 mg/ml
Description: FIG. 6: Cell migration of a 15 mg/ml P11-4 gel on a periodontal ligament model after 8 days of incubation. Human Periodontal Ligament cells were placed in a cell pool (A) and the SAP gel (C) placed on the human dentin (B). The cell/SAP-gel/dentin was then incubated for 8 days and visually assessed resulting in migration of up to 5 mm. Scale bar: 1 mm
An in vitro model of a periodontal pocket (Meyer et al., 2016) was used to assess the migration distance of periodontal ligament fibroblasts (PDLF) out of the donor compartment. In brief, to determine early processes of tissue healing, three endpoints were investigated: Adhesion, proliferation and migration of human primary periodontal ligament fibroblasts (PDLF, ScienCell). In order to mimic the in vivo conditions as close as possible, pure bovine dentin surface served as underlying structure. Adhesion and proliferation of PDLF was assessed in a time dependent manner using ATP viability Kit (Promega). Visualization of the cells on the matrix was realized by SEM. For evaluation of cell adhesion and proliferation, Emdogain® (Straumann) was used as a positive control, as it has already proven its efficacy to promote periodontal regeneration in vivo. […]
PDLF cells were allowed to migrate in different SAP or collagen hydrogels (P11-4: 20 mg/ml; all others 15 mg/ml), as explained in Example L. Migration distances were analyzed after 4 and 8 days. […]

[5] = tested on: SAOS-2 cells (Sarcoma osteogenic); assay: Cell viability on SAP hydrogels compared to Emdogain (PrestoBlue); format: cell-based
Description: (§5) Left column 15 mg/ml SAP, middle column: 20 mg/ml SAP, right column 30 mg/ml SAP for each SAP, for Emdogain®, the concentration is constant at 30 mg/ml, and the three columns show 24, 48 and 96 h administration. […] Collagen (1.5 mg/ml) was used as a test system control. Cell proliferation was measured by the metabolic conversion of PrestoBlue viability reagent. Data were normalized in respect to values measured at day 1.
(§6) Proliferation of hPDLF (periodontal ligament fibroblasts) and SAOS-2 (Sarcoma osteogenic) cells on self-assembling peptides (P11-4, P11-8, P11-13 and P11-14, 15 mg/ml SAP, 20 mg/ml SAP, 30 mg/ml SAP respectively) was compared to the current gold standard Emdogain® and/or collagen after 24, 48 and 96 h. For Emdogain®, the concentration is constant at 30 mg/ml. Viability was measured by PrestoBlue® Cell Viability Reagent A13261.

[6] = tested on: hPDLF cells (human periodontal ligament fibroblasts); assay: as above; format: cell-based; conditions: all concentrations tested (15, 20, 30 mg/ml SAP); 24, 48, 96 h; Emdogain 30 mg/ml
Description: as §5, §6

[7] = tested on: PDLF cells; assay: Stability of SAP matrices in contact with PDLF cells or medium (peptide in supernatant, UV-spectroscopy); format: cell-based; conditions: 20 mg/ml P11-4, 15 mg/ml others; 2000 PDLF cells/well or medium; 24 h
Description: Different SAP hydrogels or matrices (20 mg/ml for P11-4; 15 mg/ml for […]) were contacted with 2000 PDLF cells/well or medium. Degradation was measured after 24 h by detection of peptide concentration in the supernatant by UV-spectroscopy. No significant effect of the cells was seen.

[8] = Self-assembly at neutral pH, visual appearance; format: physicochemical; conditions: 1 part RADA16 solution (1 wt % in water) added to 1 part DMEM, neutral pH 7

Compound: Cc1ncc([N+](=O)[O-])n1CCO [metronidazole]
- impact of antibiotic released from SAP gel on bacterial growth (relative bacterial density) [1]: low effectivity in most systems at this concentration
- impact of antibiotic released from SAP gel on bacterial growth (relative bacterial density) [2]: low effectivity in most systems at this concentration

Compound: QQRFOWOFEQQ (QQRF[Orn]W[Orn]FEQQ) [P11-8, self-assembling peptide]
- storage modulus G′ / self-assembling kinetic of gel ([3]; DMEM pH 7.4 versus Tris-NaCl): very similar
- storage modulus G′ of gel ([3]; artificial saliva (Tris 120 mM, Ca(NO3) 4 mM, KH2PO4 2.4 mM, pH 7.2) versus Tris-NaCl, DMEM, Tris MgSO4): lowest storage modulus was achieved with artificial saliva
- homogenous migration of PDLF cells, visually [4]: most obvious
- migration distance of PDLF cells compared to collagen ([4]; after 4 days): slightly increased compared to collagen
- cell viability compared to Emdogain ([5]; 30 mg/ml SAP): strongly increased
- cell viability compared to Emdogain ([5]; the other concentrations (15, 20 mg/ml SAP)): slightly increased or about equal
- cell viability compared to Emdogain [6]: increased cell viability of hPDLF cells compared to Emdogain®
- degradation (peptide concentration in the supernatant) [7]: degraded slightly more than the other SAP

Compound: RADA16
- self-assembly [8]: No self-assembling is visible
